# Test results taken from patent US20220387375A1, “TRPV1 ACTIVATION-MODULATING COMPLEX MIXTURES OF CANNABINOIDS AND/OR TERPENES” (GBS Global Biopharma, Inc., priority 2018, published 2022).
# Entries after “also recorded” stand apart in the source; their conditions may differ. Where two headings read alike, the source gives them in different places.
# What was measured:
# TRPV1 = target: T1, TRPV1 (Rattus norvegicus, UniProt O35433); test: Whole-cell patch clamp of TRPV1 currents in HEK293 cells overexpressing TRPV1 (HEK293-V1); assay type: cell-based; settings: for inward current induced: cannabinoid at 50 (FIGS. 3A, 4A, 6A, 7A), applied at data point 60; for time course of induced TRPV1 current (sustained or inactivating): cannabinoid at 50, 5 μM myrcene or 1 μM capsaicin; for Max I amplitude: 120 s, Ca 1 mM external, unbuffered internal calcium; for current development and inactivation: constant external calcium, internal Ca2+ 0 nM, 180 nM, 620 nM, FCa (FIGS. 23, 24)
# T1 construct: FLAG; expressed in transfected cells
# Experimental: (§1) HEK TRexTRPV1 were cultured in DMEM, 10% Fetal Bovine Serum, 2 mM Lglutamine, 10 μg/ml Blasticidin (Calbiochem, San Diego Calif.), 400 μg/ml Zeocin (InvivoGen, San Diego Calif.), where indicated transgene expression was induced using 1 μg/ml Tetracycline for 16-24 hrs. Unless otherwise indicated, basal expression of TRPV1 without induction was sufficient for these studies, and comparisons were made to untransfected HEK where needed. HEKTRex293 over-expressing human TRPV2, human TRPA1 and human TRPM8 were obtained from SB Drug Discovery (Glasgow, Scotland) and cultured as described above. The cannabinoids and terpenes were assayed in HEK cells that have been transfected with the TRPV1 ion channel protein. These cells are called HEK293-V1 cells.
# This technique is used to study ionic currents from HEK293-V1. The voltage across the cell membrane is controlled and the ionic currents associated with changes in voltage are measured. A micropipette tip is pulled to a few micrometers in diameter followed by heating the tip to produce a smooth surface that assists in forming a high resistance seal with the cell membrane. To obtain this high resistance seal, the micropipette is pressed against a cell membrane and suction is applied. The membrane then fuses onto the glass surface creating a high resistance in the gigaohm range. This makes it possible to isolate electronically the ionic currents measured across the membrane patch or across the entire cell.
# Patch-clamp experiments were performed in the whole-cell configuration at 21-25° C. Patch pipettes had resistances of 2-3 MΩ. Data was acquired with PatchMaster software (HEKA, Lambrecht, Germany), controlling an EPC-9 amplifier. Voltage ramps of 50 ms spanning the voltage range from −100 to 100 mV were delivered from a holding potential of 0 mV at a rate of 0.5 Hz over a period of 500 ms to 180 seconds (3 minutes). Voltages were corrected for a liquid junction potential of 10 mV. Currents were filtered at 2.9 kHz and digitized at 100 μs intervals. Capacitive currents were determined and corrected before each voltage ramp. The development of currents for a given potential was extracted from individual ramp current records by measuring the current amplitudes at voltages of −80 mV and +80 mV. Data were analyzed with FitMaster (HEKA, Lambrecht, Germany), and IgorPro (WaveMetrics, Lake Oswego, Oreg., USA). Where applicable, statistical errors of averaged data are given as mean±s.e.m with n determinations. The activated current amplitudes are analyzed by nA rather than pA/pF. […] Also the cell size selected for patching was in the 9 -12 pF range.
# For patch-clamp recordings, HEK293 cells were kept in a standard sodium-based external Ringer's solution containing (mM): 140 NaCl, 1 CaCl2, 2 MgCl2, 2.8 KCl, 11 glucose, 10 HEPES-NaOH with a pH of 7.2 and osmolarity of 300 mOsmol. To assess the effects of external Calcium (Ca) on TRPV1 inactivation kinetics, Ca at different levels were tested including 0, 1, and 3 mM. In Experiments with zero external Ca, EGTA 10 mM was added and the Na concentration was lowered to 130 mM to maintain standard osmotic conditions at 300 mOsmol. For rapid external solution application and exchanges we used the SmartSquirt delivery system (Auto-Mate Scientific, San Francisco Calif., USA) that included four cryo tubes allowing for solution exchanges within one patch. This system included a ValveLink TTL interface between the electronic valves and the EPC10 amplifier (HEKA, Lambrecht, Germany). This electronic configuration allowed for programmable solution changes via the PatchMaster software (HEKA, Lambrecht, Germany).
# TRPM8 = target: T2, TRPM8 (Homo sapiens, UniProt Q7Z2W7); test: Bulk calcium assay (Fluo-4) in HEK cells overexpressing TRPM8; assay type: cell-based
# T2 construct: host or cells: HEK TRex293
# Experimental: as §1
# Cells were washed and incubated with 0.2 micromolar Fluo-4 for 30 minutes at 37° C. in a standard modified Ringer's solution of the following composition (in mM): NaCl 145, KCl 2.8, CsCl 10, CaCl2 10, MgCl2 2, glucose 10, Hepes·NaOH 10, pH 7.4, 330 mOsm. Cells were transferred to 96-well plates at 50,000 cells/well and stimulated as indicated. Calcium signals were acquired using a Flexstation 3 (Molecular Devices, Sunnydale, USA). Data was analyzed using SoftMax® Pro 5 (Molecular Devices). Where indicated, nomically calcium-free external conditions were achieved by the preparation of 0 mM CaCl2 Ringer solution containing 1 mM EGTA.
# Calcium responses mediated by TRPA1, TRPM8, TRPV2, and TRPV1 were tested by calcium assay in the cell culture system. Cells were washed and incubated with 0.2 μM fluo-4 acetoxymethyl ester (“Fluo-4”) for 30 minutes at 37° C. in a standard modified Ringer's solution of the following composition (in mM): NaCl 145, KCl 2.8, CsCl 10, CaCl2 10, MgCl2 2, glucose 10, Hepes·NaOH 10, pH 7.4, 330 mOsm. Cells were transferred to 96-well plates at 50,000 cells/well and stimulated with 10 μM myrcene diluted in DMSO. Vehicle (DMSO) was used as a negative control. Vehicle traces were subtracted from the myrcene traces for each cell line.
# The potential for different cannabinoids to target specific TRP channels, or to co-target more than one channel type, are of potential therapeutic options for the treatment and management of pain. Comparison of the impacts of a variety of cannabinoid on overexpression systems for TRPV2, TRPM8, and TRPA1 were performed in a side-by-side fashion, under bulk calcium assays where the measurements with each trace representing averaged triplicates of 100,000 cells per sample. As shown in FIGS. 41-43 and summarized in Table 3, there are clear differences in responsiveness between cannabinoids at a single channel type than between channel types to a given cannabinoid.
# [1] = after cannabinoid at 50 (voltage ramp)
# [2] = CBD-induced current, internal Ca2+ 0, external Ca2+ 0 mM
# [3] = CBD-induced current, internal Ca2+ 0, external Ca2+ 1 mM
# [4] = CBD-induced current, internal Ca2+ 0, external Ca2+ 3 mM
# [5] = CBD-induced current, internal Ca2+ 180 nM, external Ca2+ 0 mM
# [6] = CBD-induced current, internal Ca2+ 180 nM, external Ca2+ 1 mM
# [7] = CBD-induced current, internal Ca2+ 180 nM, external Ca2+ 3 mM
# [8] = CBD-induced current, internal Ca2+ >620 nM (free Ca2+), external Ca2+ 0 mM
# [9] = CBD-induced current, internal Ca2+ >620 nM (free Ca2+), external Ca2+ 1 mM
# [10] = CBD-induced current, internal Ca2+ >620 nM (free Ca2+), external Ca2+ 3 mM
# T1 sequence (O35433 whole entry): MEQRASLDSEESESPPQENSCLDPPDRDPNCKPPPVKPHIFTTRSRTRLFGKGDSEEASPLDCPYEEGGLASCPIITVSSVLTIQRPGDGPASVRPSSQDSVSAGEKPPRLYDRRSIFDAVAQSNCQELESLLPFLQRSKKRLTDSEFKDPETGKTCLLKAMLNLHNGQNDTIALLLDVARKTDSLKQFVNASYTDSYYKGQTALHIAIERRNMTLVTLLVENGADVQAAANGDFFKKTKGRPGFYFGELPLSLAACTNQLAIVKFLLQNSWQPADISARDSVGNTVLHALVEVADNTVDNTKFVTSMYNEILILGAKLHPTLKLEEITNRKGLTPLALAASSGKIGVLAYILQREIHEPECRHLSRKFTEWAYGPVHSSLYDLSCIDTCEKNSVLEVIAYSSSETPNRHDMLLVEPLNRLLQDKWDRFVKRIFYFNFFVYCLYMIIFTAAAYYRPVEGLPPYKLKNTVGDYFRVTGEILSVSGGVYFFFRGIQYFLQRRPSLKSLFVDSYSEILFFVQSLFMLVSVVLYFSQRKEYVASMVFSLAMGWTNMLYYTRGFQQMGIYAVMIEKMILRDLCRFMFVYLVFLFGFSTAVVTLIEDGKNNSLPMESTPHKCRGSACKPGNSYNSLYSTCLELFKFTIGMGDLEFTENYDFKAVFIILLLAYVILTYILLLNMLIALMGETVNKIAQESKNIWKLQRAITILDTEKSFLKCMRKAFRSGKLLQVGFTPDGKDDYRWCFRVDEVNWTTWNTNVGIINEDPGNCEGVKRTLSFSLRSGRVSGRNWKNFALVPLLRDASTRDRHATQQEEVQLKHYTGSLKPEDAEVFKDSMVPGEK
# T2 sequence (Q7Z2W7 whole entry): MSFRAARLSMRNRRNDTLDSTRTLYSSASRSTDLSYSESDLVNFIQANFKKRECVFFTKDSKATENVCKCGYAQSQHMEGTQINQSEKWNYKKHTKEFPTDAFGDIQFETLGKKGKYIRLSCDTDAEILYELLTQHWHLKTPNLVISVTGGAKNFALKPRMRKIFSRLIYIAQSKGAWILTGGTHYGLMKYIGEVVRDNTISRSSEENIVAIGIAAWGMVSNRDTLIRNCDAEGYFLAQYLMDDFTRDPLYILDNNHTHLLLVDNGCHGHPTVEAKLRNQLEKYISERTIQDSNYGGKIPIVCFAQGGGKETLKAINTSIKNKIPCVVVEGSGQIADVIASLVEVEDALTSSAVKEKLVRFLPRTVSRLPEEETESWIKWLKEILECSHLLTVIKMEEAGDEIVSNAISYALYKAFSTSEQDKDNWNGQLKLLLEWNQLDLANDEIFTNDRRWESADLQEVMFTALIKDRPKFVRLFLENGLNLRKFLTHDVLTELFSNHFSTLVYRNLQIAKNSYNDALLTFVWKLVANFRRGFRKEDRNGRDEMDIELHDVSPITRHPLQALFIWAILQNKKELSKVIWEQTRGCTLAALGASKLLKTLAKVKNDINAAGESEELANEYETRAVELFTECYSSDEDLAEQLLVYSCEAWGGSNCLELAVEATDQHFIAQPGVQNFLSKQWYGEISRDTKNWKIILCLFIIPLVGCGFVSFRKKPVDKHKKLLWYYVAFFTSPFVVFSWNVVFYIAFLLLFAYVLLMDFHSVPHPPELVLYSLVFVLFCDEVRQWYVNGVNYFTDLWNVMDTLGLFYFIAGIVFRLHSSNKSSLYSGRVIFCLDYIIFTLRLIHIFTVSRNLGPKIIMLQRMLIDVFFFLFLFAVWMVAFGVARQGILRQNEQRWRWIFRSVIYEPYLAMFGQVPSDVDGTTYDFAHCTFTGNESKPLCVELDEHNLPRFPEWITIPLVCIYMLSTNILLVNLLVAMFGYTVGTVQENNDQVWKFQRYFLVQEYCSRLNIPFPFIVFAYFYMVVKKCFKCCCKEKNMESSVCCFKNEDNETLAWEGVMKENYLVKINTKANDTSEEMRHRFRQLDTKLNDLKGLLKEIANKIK
smiles,measurement,setting,value
"CCCCCc1cc(O)c(C/C=C(\C)CCC=C(C)C)c(O)c1 [CBG, Cannabigerol]",attainment of the pore-dilated state,"TRPV1; 50 μM, induction time 25 hours (FIGS. 37-40C)",lack of attainment of the pore-dilated state
same,IV relationship / TRPV1 channel state,TRPV1; [1],outwardly-rectifying IV curve consistent with un-dilated TRPV1 (state 1)
same,EC50,"TRPV1; calculated from Imax per dose, HEK-TRPV1 patch clamp, read-out: EC50 at TRPV1",19 µM
same,inward current induced,TRPV1,4-5 nA
same,time course of induced TRPV1 current (sustained or inactivating),TRPV1,sustained
same,Rate of inactivation,TRPV1; dose 10 micromolar,0 dpsec^−1
same,Time to max,TRPV1; dose 10 micromolar,120 s
same,Max I amplitude,TRPV1; dose 10 micromolar,0.2 nA
same,Rate of inactivation,TRPV1; dose 30 micromolar,.007 dpsec^−1
same,Time to max,TRPV1; dose 30 micromolar,94 s
same,Max I amplitude,TRPV1; dose 30 micromolar,0.6 nA
same,Rate of inactivation,TRPV1; dose 50 micromolar,.008 dpsec^−1
same,Time to max,TRPV1; dose 50 micromolar,96 s
same,Max I amplitude,TRPV1; dose 50 micromolar,0.7 nA
same,Rate of inactivation,TRPV1; dose 150 micromolar,.014 dpsec^−1
same,Time to max,TRPV1; dose 150 micromolar,92 s
same,Max I amplitude,TRPV1; dose 150 micromolar,0.9 nA
same,"mean maximal Ca^2+ signal RFU achieved 0-180 s (SD), TRM8",TRPM8,2.25 (0.46) RFU
"CCCCCc1cc(O)c2c(c1)OC(C)(C)c1ccc(C)cc1-2 [CBN, Cannabinol]",EC50,TRPV1,36 µM
same,inward and outward current magnitude compared to 50 μM CBN,TRPV1; 10 μM CBN,greater inward and outward current magnitude
same,IV relationship / TRPV1 channel state,TRPV1; after 10 μM CBN,becomes more linear; also recorded: partial state transition from state 1 to state 2
same,IV relationship / TRPV1 channel state,TRPV1; [1],outwardly-rectifying IV curve consistent with un-dilated TRPV1 (state 1)
same,inward current induced,TRPV1,0.5-2 nA
same,time course of induced TRPV1 current (sustained or inactivating),TRPV1,rapidly inactivating
same,current development and inactivation,TRPV1,"activated quickly, but rapidly inactivated with a slower kinetic profile"
same,Rate of inactivation,TRPV1; dose 10 micromolar,0 dpsec^−1
same,Time to max,TRPV1; dose 10 micromolar,174 s
same,Max I amplitude,TRPV1; dose 10 micromolar,0.4 nA
same,Rate of inactivation,TRPV1; dose 30 micromolar,0 dpsec^−1
same,Time to max,TRPV1; dose 30 micromolar,176 s
same,Max I amplitude,TRPV1; dose 30 micromolar,0.6 nA
same,Rate of inactivation,TRPV1; dose 50 micromolar,.010 dpsec^−1
same,Time to max,TRPV1; dose 50 micromolar,120 s
same,Max I amplitude,TRPV1; dose 50 micromolar,1.5 nA
same,Rate of inactivation,TRPV1; dose 150 micromolar,.019 dpsec^−1
same,Time to max,TRPV1; dose 150 micromolar,82 s
same,Max I amplitude,TRPV1; dose 150 micromolar,1.8 nA
same,"mean maximal Ca^2+ signal RFU achieved 0-180 s (SD), TRM8",TRPM8,0.09 (0.01) RFU
"C=C(C)[C@@H]1CCC(C)=C[C@H]1c1c(O)cc(CCCCC)cc1O [CBD, Cannabidiol]",EC50,TRPV1,30 µM
same,type of TRPV1 current recorded,"TRPV1; CBD 30 μM, Ca 0 internally and externally",outwardly rectifying current
same,transition to the pore-dilated state,"TRPV1; CBD up to 150 μM, induction times 0-25 hours, currents about 10 nA",no transition to the pore-dilated state
same,Max rate of activation,"TRPV1; CBD-induced current (30 μM, FIG. 22), internal Ca2+ 0, external Ca2+ 0 mM",1.1% per S
same,Max rate of activation,"TRPV1; CBD-induced current (30 μM, FIG. 22), internal Ca2+ 0, external Ca2+ 1 mM",1.9% per S
same,Max rate of activation,"TRPV1; CBD-induced current (30 μM, FIG. 22), internal Ca2+ 0, external Ca2+ 3 mM",3% per S
same,Rate of inactivation,TRPV1; [2],0.41% per S
same,Time to max amplitude,TRPV1; [2],136 S
same,Rate of inactivation,TRPV1; [3],0.82% per S
same,Time to max amplitude,TRPV1; [3],94 S
same,Rate of inactivation,TRPV1; [4],0.94% per S
same,Time to max amplitude,TRPV1; [4],82 S
same,Max rate of activation,TRPV1; [5],1.6% per S
same,Rate of inactivation,TRPV1; [5],0.67% per S
same,Time to max amplitude,TRPV1; [5],108 S
same,Max rate of activation,TRPV1; [6],1.6% per S
same,Rate of inactivation,TRPV1; [6],0.71% per S
same,Time to max amplitude,TRPV1; [6],116 S
same,Max rate of activation,TRPV1; [7],2.4% per S
same,Rate of inactivation,TRPV1; [7],0.72% per S
same,Time to max amplitude,TRPV1; [7],92 S
same,Max rate of activation,TRPV1; [8],0.83% per S
same,Rate of inactivation,TRPV1; [8],0.49% per S
same,Time to max amplitude,TRPV1; [8],160 S
same,Max rate of activation,TRPV1; [9],1.5% per S
same,Rate of inactivation,TRPV1; [9],1.1% per S
same,Time to max amplitude,TRPV1; [9],120 S
same,Max rate of activation,TRPV1; [10],2.7% per S
same,Rate of inactivation,TRPV1; [10],1% per S
same,Time to max amplitude,TRPV1; [10],88 S
same,IV relationship / TRPV1 channel state,TRPV1; [1],outwardly-rectifying IV curve consistent with un-dilated TRPV1 (state 1)
same,inward current induced,TRPV1,4-6 nA
same,time course of induced TRPV1 current (sustained or inactivating),TRPV1,sustained
same,current development and inactivation,TRPV1,"gradual current development, which inactivated only when internal calcium is buffered above zero"
same,Rate of inactivation,TRPV1; dose 10 micromolar,0 dpsec^−1
same,Time to max,TRPV1; dose 10 micromolar,178 s
same,Max I amplitude,TRPV1; dose 10 micromolar,0.8 nA
same,Rate of inactivation,TRPV1; dose 30 micromolar,0 dpsec^−1
same,Time to max,TRPV1; dose 30 micromolar,180 s
same,Max I amplitude,TRPV1; dose 30 micromolar,2.2 nA
same,Rate of inactivation,TRPV1; dose 50 micromolar,.02 dpsec^−1
same,Time to max,TRPV1; dose 50 micromolar,130 s
same,Max I amplitude,TRPV1; dose 50 micromolar,1.6 nA
same,Rate of inactivation,TRPV1; dose 150 micromolar,.042 dpsec^−1
same,Time to max,TRPV1; dose 150 micromolar,96 s
same,Max I amplitude,TRPV1; dose 150 micromolar,3.5 nA
same,"mean maximal Ca^2+ signal RFU achieved 0-180 s (SD), TRM8",TRPM8,1.12 (0.02) RFU
